Reference: ChEMBL document CHEMBL1131757, “4,10-dihydro-5H-thieno[3,2-c][1]benzazepine derivatives and 9,10-dihydro-4H-thieno[2,3-c][1]benzazepine derivatives as orally active arginine vasopressin receptor antagonists” (Bioorg Med Chem Lett, 1999)

Columns and labels:
Vasopressin V1a receptor [1] = target: T1, Vasopressin V1a receptor (Homo sapiens, UniProt P37288); experiment: In vitro inhibition of [3H]- AVP binding to V1a receptor from human platelet membrane at 10 uM
Target sequence in this assay (P37288 whole entry, looked up): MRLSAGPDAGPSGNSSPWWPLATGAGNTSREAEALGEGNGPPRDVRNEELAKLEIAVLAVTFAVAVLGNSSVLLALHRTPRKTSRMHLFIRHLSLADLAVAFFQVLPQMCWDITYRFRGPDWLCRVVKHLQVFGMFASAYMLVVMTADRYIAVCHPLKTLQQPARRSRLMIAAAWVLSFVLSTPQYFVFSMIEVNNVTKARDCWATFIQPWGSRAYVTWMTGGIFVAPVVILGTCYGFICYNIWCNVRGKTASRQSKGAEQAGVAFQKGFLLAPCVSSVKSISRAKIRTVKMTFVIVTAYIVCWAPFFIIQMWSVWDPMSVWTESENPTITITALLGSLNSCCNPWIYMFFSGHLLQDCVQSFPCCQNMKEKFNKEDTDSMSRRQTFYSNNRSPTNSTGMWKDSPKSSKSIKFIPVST

Rattus norvegicus = experiment: Amount of urine output was measured in rat at a dose of 10 mg/kg administered orally; assay type: ADME, organism-based; set-up: dose 10 mg/kg, route oral; settings: in vivo, po
Vasopressin V2 receptor = Vasopressin V2 receptor (Homo sapiens, UniProt P30518); experiment: In vitro inhibition of [3H]AVP binding to human V2 receptor from murine fibroblast cell line (LV2); assay type: cell-based
Vasopressin V1a receptor [2] = target: T1, Vasopressin V1a receptor; experiment: In vitro inhibition of [3H]- AVP binding to V1a receptor from human platelet membrane
Target sequence in this assay (P37288 whole entry): as the sequence (P37288 whole entry, looked up) above

Vasopressin V2 receptor, sequence (P30518 whole entry): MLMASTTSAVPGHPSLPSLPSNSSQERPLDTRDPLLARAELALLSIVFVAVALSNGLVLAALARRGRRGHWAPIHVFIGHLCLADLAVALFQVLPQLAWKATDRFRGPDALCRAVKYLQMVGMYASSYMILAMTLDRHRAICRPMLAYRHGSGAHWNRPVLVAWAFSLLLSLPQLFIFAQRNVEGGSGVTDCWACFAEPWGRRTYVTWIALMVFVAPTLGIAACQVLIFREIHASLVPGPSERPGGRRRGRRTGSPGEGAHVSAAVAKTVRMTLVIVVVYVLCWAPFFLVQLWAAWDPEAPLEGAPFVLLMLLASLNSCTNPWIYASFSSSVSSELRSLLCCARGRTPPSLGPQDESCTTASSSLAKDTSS

Row | inhibition (Vasopressin V1a receptor [1]) [%] | Urine volume (Rattus norvegicus) [ml 4hr-1] | IC50 (Vasopressin V2 receptor) [nM] | IC50 (Vasopressin V1a receptor [2]) [nM] | SMILES
1 | 59 | 30 | 6.8 | – | Cc1ccc(F)cc1C(=O)Nc1ccc(C(=O)N2Cc3sccc3Cc3ccccc32)c(Cl)c1
2 | – | 13.5 | 0.7 | 8.5 | Cc1ccccc1C(=O)Nc1ccc(C(=O)N2Cc3sccc3Cc3ccccc32)cc1
3 | – | 35 | – | – | Cc1ccc(F)cc1C(=O)Nc1ccc(C(=O)N2Cc3cccn3Cc3ccccc32)c(Cl)c1 [LIXIVAPTAN]
4 | – | 4.5 | – | – | Cc1ccccc1C(=O)Nc1ccc(C(=O)N2Cc3ccsc3Cc3ccccc32)cc1
5 | – | 16.5 | – | – | Cc1ccc(F)cc1C(=O)Nc1ccc(C(=O)N2Cc3sccc3Cc3ccccc32)cn1
6 | – | 5.8 | 19 | 43 | O=C(Nc1ccc(C(=O)N2Cc3sccc3Cc3ccccc32)cc1)c1ccc(Cl)cc1Cl
